How the values were obtained:
HEK293 cells = test: MTT cytotoxicity assay, HEK293; type: cell-based; details: Homo sapiens, 24 h exposure, mean ± SD, three biological replicates
Excerpt: The human cell lines TK10 (human kidney adenocarcinoma), UACC62 (human melanoma) and MCF7 (human breast adenocarcinoma) were obtained from the National Cancer Institute (NCI) as part of a panel widely studied for drug screening and molecular target identification. Melanoma (A375) and human embryonic kidney (HEK293) were acquired from the American Type Culture Collection; ATCC® CRL-1619™ and ATCC® CRL-1573™ respectively. The nontumorigenic human immortalized keratinocyte (HaCaT) cells were a kind donation by the School of Anatomical Sciences, Faculty of Health Sciences, University of the Witwatersrand, South Africa. HaCaT cells were chosen as the nonmalignant control due to their ease of propagation, near normal phenotype and general use as an A375 control ([Dwivedi et al., 2015]; [Lewies et al., 2018]). The A375 cell line is a […] cells line with the BRAF mutation frequently used for in vitro drug screening assays for anti-melanoma drugs ([Couto et al., 2019]). All reagents were of analytical grade and were obtained from Merck (Darmstadt, Germany) unless stated otherwise. Cells were cultured in Dulbecco’s modified essential medium (DMEM; Hyclone, GE healthcare, South Logan, UT, USA) containing 10% fetal bovine serum (FBS), 1% penicillin/streptomycin, 1% 200 mM L-Glutamine and 1% nonessential amino acids (Lonza, Basel, Switzerland) at 37°C in a humidified atmosphere of 5% CO2. […]
The growth inhibitory effects of the compounds were tested in the 3-cell line panel consisting of TK10 (renal), UACC62 (melanoma) and MCF7 (breast) cancer cells by Sulforhodamine B (SRB) assay. In addition, activity was also evaluated against HEK293 cells with the 3-(4,5-dimethylthiazol-2-yl)-2,5-diphenyl tetrazolium bromide (MTT) assay ([Mosmann, 1983]). […] The results were expressed as half maximal inhibitory concentrations (IC50) as described before ([Lewies et al., 2018]). […] After incubation, cell viability was determined using a microplate reader (BioTek®, Vermont, USA) at an excitation wavelength of 560 nm and emission wavelength of 630 nm with DMSO measured as a blank. Cell viability was expressed as a percentage relative to the untreated control, which is assumed to be 100% viable. […] Using the MTT assay data, IC50 values were calculated using GraphPad Prism 8. […] The curve was fitted using the log(inhibitor) vs. response function and the IC50 values calculated ([Lewies et al., 2018]). A crude therapeutic index (fold decrease in IC50 value) was calculated as the IC50 of the noncancerous cell-line/IC50 of the cancerous cell line. […] Drug interactions were evaluated for synergism, additivity or antagonism using multiple drug effect analysis, based on the median-principle. Cells were treated with the drug combinations for 24 h and analyzed. […]

A375 melanoma cells = test: LDH release membrane integrity assay, A375; type: cell-based, human; details: for LDH release, result in words: IC50 concentrations, 24 h (Table 3, Figure 6C); for A375 (% LDH release): compounds at their IC50 concentrations, 24 h, combinations 1:1, relative to maximum release; for Fold increase in LDH release: selectivity toward melanoma cell membranes, A375 vs HaCat
Excerpt: In order to determine cell membrane integrity, the CytoTox-ONE™ Homogeneous Membrane Integrity Assay (Promega, Madison, WO, USA) was employed. This fluorometric assay measures the release of LDH from cells with damaged cell membranes. […] The manufacturer’s instructions were followed to determine the fluorescence at an excitation wavelength of 560 nm and an emission wavelength of 590 nm. In order to calculate the percentage cytotoxicity, the average fluorescent values of the background medium were subtracted from all average fluorescent values of the experimental samples and the positive control. Cytotoxicity is expressed as a percentage relative to the positive control, which is assumed to be responsible for 100% LDH release. The fold increase in LDH release was taken as the indication of the selectivity toward melanoma cell membranes, calculated as the […]. All experiments were performed at least in triplicate and independently repeated. Statistical significant differences were calculated with one-way ANOVA.
Results are expressed relative to the untreated control and the maximum release sample, which was set as having 0% and 100% LDH release respectively. The LDH released from the nonmalignant HaCat cells and the A375 melanoma cells was then used to deduce the selectivity of the compounds against melanoma cell membranes.

## C[C@H]1[C@H](N2CCS(=O)(=O)CC2)O[C@@H]2O[C@@]3(C)CC[C@H]4[C@H](C)CC[C@@H]1[C@@]24OO3 [Artemisone 4, artemisone]
HEK293 cells
  IC50: 86.7 ± 1.09 µM
A375 melanoma cells
  LDH release, result in words: did not significantly increase the release of LDH
  A375 (% LDH release): 27 ± 0.81%
  Fold increase in LDH release: 1.4

## CC(C)=CCC/C(C)=C/CC/C(C)=C/CN1CCN([C@@H]2O[C@@H]3O[C@@]4(C)CC[C@H]5[C@H](C)CC[C@@H]([C@H]2C)[C@@]35OO4)CC1 [Farnesylpiperazine-DHA 7, farnesylpiperazine-DHA]
HEK293 cells
  IC50: 35.5 ± 1.09 µM
A375 melanoma cells
  A375 (% LDH release): 57 ± 1.21%
  Fold increase in LDH release: 3.1

## C[C@@H]1CC[C@H]2[C@@H](C)C(=O)O[C@@H]3O[C@@]4(C)CC[C@@H]1[C@]32OO4 [Artemisinin 2, artemisinin]
HEK293 cells
  IC50: 120.7 ± 1.07 µM
A375 melanoma cells
  LDH release, result in words: did not significantly increase the release of LDH
  A375 (% LDH release): 24 ± 0.96%
  Fold increase in LDH release: 1.3

## CC(C)=CCC/C(C)=C/CN1CCN([C@@H]2O[C@@H]3O[C@@]4(C)CC[C@H]5[C@H](C)CC[C@@H]([C@H]2C)[C@@]35OO4)CC1 [Geranylpiperazine-DHA 6, geranylpiperazine-DHA]
HEK293 cells
  IC50: 24.3 ± 1.15 µM
A375 melanoma cells
  A375 (% LDH release): 68 ± 0.91%
  Fold increase in LDH release: 4.0

From paper PMC7552967, “Anti-Melanoma Activities of Artemisone and Prenylated Amino-Artemisinins in Combination With Known Anticancer Drugs” (Frontiers in Pharmacology, 2020)
